Reference: the supplement of paper PMC13380429

Assays:
[1] = test system: A549-ACE2 infected with SARS-CoV-2; test: SARS-CoV-2 infection rate relative to DMSO; higher = more infection; details: 24 h
[2] = test system: A549-ACE2 infected with SARS-CoV-2; test: morphology score (similarity to uninfected cells); higher = more like uninfected cells; details: 24 h
[3] = test system: A549-ACE2 infected with SARS-CoV-2; test: cell count relative to DMSO; higher = less toxic; details: 24 h
A549-ACE2 [4] = test: drug-induced phospholipidosis relative to tamoxifen; higher = more phospholipidosis
U2OS [5] = test: drug sensitivity score (DSS) for viability; higher = more toxic; extreme values may be limits of the assay; details: 72 h
Vero E6 [6] = test: as above; details: 72 h
HepG2 [7] = test: as above; details: 72 h
Caco-2 [8] = test: as above; details: 72 h
A549-ACE2 [9] = test: phospholipidosis EC50; higher = less potent phospholipidosis inducer
U2OS [10] = test: relative viability EC50 (midpoint between 100% and the lowest measured viability); higher = less toxic; details: 72 h
HepG2 [11] = test: as above; details: 72 h
Caco-2 [12] = test: as above; details: 72 h
U2OS [13] = test: cell viability relative to DMSO; higher = less toxic; details: 72 h
Vero E6 [14] = test: as above; details: 72 h
HepG2 [15] = test: as above; details: 72 h
Caco-2 [16] = test: as above; details: 72 h
Calu-3 [17] = test: drug sensitivity score (DSS) for viability; higher = more toxic; extreme values may be limits of the assay; details: 72 h
Calu-3 [18] = test: relative viability EC50 (midpoint between 100% and the lowest measured viability); higher = less toxic; details: 72 h
Vero E6 [19] = test: as above; details: 72 h
Calu-3 [20] = test: cell viability relative to DMSO; higher = less toxic; details: 72 h

N=C(NCCCCCCNC(=N)NC(=N)Nc1ccc(Cl)cc1)NC(=N)Nc1ccc(Cl)cc1 [chlorhexidine]
Details	SARS-CoV-2 infection rate [%]	cell count [%]	cell viability [%]	morphology score	phospholipidosis EC50 [µM]
A549-ACE2 [9], 24 h	–	–	–	–	9.72
A549-ACE2 [9], 48 h	–	–	–	–	7.36
Caco-2 [16], 1 nM	–	–	99.3	–	–
Caco-2 [16], 10 nM	–	–	90	–	–
Caco-2 [16], 100 nM	–	–	98.1	–	–
Caco-2 [16], 1000 nM	–	–	100	–	–
Caco-2 [16], 10000 nM	–	–	16.4	–	–
HepG2 [15], 1 nM	–	–	101	–	–
HepG2 [15], 10 nM	–	–	103	–	–
HepG2 [15], 100 nM	–	–	87	–	–
HepG2 [15], 1000 nM	–	–	90.9	–	–
HepG2 [15], 10000 nM	–	–	10.1	–	–
U2OS [13], 1 nM	–	–	99.9	–	–
U2OS [13], 10 nM	–	–	101	–	–
U2OS [13], 100 nM	–	–	95.9	–	–
U2OS [13], 1000 nM	–	–	100	–	–
U2OS [13], 10000 nM	–	–	32.2	–	–
Vero E6 [14], 1 nM	–	–	96.5	–	–
Vero E6 [14], 10 nM	–	–	99	–	–
Vero E6 [14], 100 nM	–	–	97.9	–	–
Vero E6 [14], 1000 nM	–	–	95.2	–	–
Vero E6 [14], 10000 nM	–	–	56.1	–	–
[1], 0.1 µM	95	–	–	–	–
[1], 0.3 µM	90	–	–	–	–
[1], 1 µM	91	–	–	–	–
[1], 3 µM	93	–	–	–	–
[2], 0.1 µM	–	–	–	-0.01	–
[2], 0.3 µM	–	–	–	0.17	–
[2], 1 µM	–	–	–	0.17	–
[2], 3 µM	–	–	–	-0.05	–
[3], 0.1 µM	–	103	–	–	–
[3], 0.3 µM	–	99	–	–	–
[3], 1 µM	–	107	–	–	–
[3], 3 µM	–	106	–	–	–

drug-induced phospholipidosis [%], A549-ACE2 [4]
Details	0.3 µM	0.833333 µM	3.33333 µM	6.66667 µM	10 µM	30 µM
24 h	-0.01	-1.75	7.04	31.6	58.6	105
48 h	3.12	2.84	15.7	40.3	57.2	–
72 h	3.95	2.67	18.9	39.3	61.2	–

Details	drug sensitivity score	relative viability EC50
Caco-2 [8]	4.6	–
Caco-2 [12]	–	3.19 µM
HepG2 [7]	6.5	–
HepG2 [11]	–	2320 nM
U2OS [5]	3.7	–
U2OS [10]	–	3.19 µM
Vero E6 [6]	3	–

OC(c1cc(C(F)(F)F)nc2c(C(F)(F)F)cccc12)C1CCCCN1 (stereo not given) [mefloquine]
Details	SARS-CoV-2 infection rate [%]	cell count [%]	cell viability [%]	morphology score	phospholipidosis EC50 [µM]
A549-ACE2 [9], 24 h	–	–	–	–	1.57
A549-ACE2 [9], 48 h	–	–	–	–	2.78
A549-ACE2 [9], 72 h	–	–	–	–	3.29
Caco-2 [16], 1 nM	–	–	108	–	–
Caco-2 [16], 10 nM	–	–	103	–	–
Caco-2 [16], 100 nM	–	–	102	–	–
Caco-2 [16], 1000 nM	–	–	105	–	–
Caco-2 [16], 10000 nM	–	–	69.3	–	–
Calu-3 [20], 1 nM	–	–	110	–	–
Calu-3 [20], 10 nM	–	–	90.2	–	–
Calu-3 [20], 100 nM	–	–	105	–	–
Calu-3 [20], 1000 nM	–	–	103	–	–
Calu-3 [20], 10000 nM	–	–	76.9	–	–
HepG2 [15], 1 nM	–	–	98.1	–	–
HepG2 [15], 10 nM	–	–	89.9	–	–
HepG2 [15], 100 nM	–	–	98.9	–	–
HepG2 [15], 1000 nM	–	–	89.7	–	–
HepG2 [15], 10000 nM	–	–	10.8	–	–
U2OS [13], 1 nM	–	–	106	–	–
U2OS [13], 10 nM	–	–	99.6	–	–
U2OS [13], 100 nM	–	–	107	–	–
U2OS [13], 1000 nM	–	–	99.5	–	–
U2OS [13], 10000 nM	–	–	73	–	–
Vero E6 [14], 1 nM	–	–	101	–	–
Vero E6 [14], 10 nM	–	–	106	–	–
Vero E6 [14], 100 nM	–	–	102	–	–
Vero E6 [14], 1000 nM	–	–	103	–	–
Vero E6 [14], 10000 nM	–	–	78.7	–	–
[1], 0.1 µM	107	–	–	–	–
[1], 0.3 µM	94	–	–	–	–
[1], 1 µM	89	–	–	–	–
[1], 3 µM	32	–	–	–	–
[2], 0.1 µM	–	–	–	-0.29	–
[2], 0.3 µM	–	–	–	0.2	–
[2], 1 µM	–	–	–	0.27	–
[2], 3 µM	–	–	–	0.84	–
[3], 0.1 µM	–	98	–	–	–
[3], 0.3 µM	–	98	–	–	–
[3], 1 µM	–	108	–	–	–
[3], 3 µM	–	122	–	–	–

drug-induced phospholipidosis [%], A549-ACE2 [4]
Details	0.3 µM	0.833333 µM	3.33333 µM	6.66667 µM	10 µM
24 h	2.22	17.4	75	83.8	88.4
48 h	3.66	13	67.8	86.7	102
72 h	5.04	11.3	58.8	87.9	97.7

Details	drug sensitivity score	relative viability EC50
Caco-2 [8]	1.1	–
Calu-3 [17]	0.6	–
Calu-3 [18]	–	> 10000 nM
HepG2 [7]	6.7	–
HepG2 [11]	–	2210 nM
U2OS [5]	1.1	–
Vero E6 [6]	0.5	–
Vero E6 [19]	–	> 10 µM

c1ccc2c(CCNc3ccc(Nc4ccncc4)cc3)c[nH]c2c1 [serdemetan]
Details	SARS-CoV-2 infection rate [%]	cell count [%]	cell viability [%]	morphology score	phospholipidosis EC50 [µM]
A549-ACE2 [9], 24 h	–	–	–	–	3.5
A549-ACE2 [9], 48 h	–	–	–	–	3.63
Caco-2 [16], 1 nM	–	–	94.1	–	–
Caco-2 [16], 10 nM	–	–	94.2	–	–
Caco-2 [16], 100 nM	–	–	99	–	–
Caco-2 [16], 1000 nM	–	–	92.1	–	–
Caco-2 [16], 10000 nM	–	–	82.8	–	–
Calu-3 [20], 1 nM	–	–	98.5	–	–
Calu-3 [20], 10 nM	–	–	92.3	–	–
Calu-3 [20], 100 nM	–	–	105	–	–
Calu-3 [20], 1000 nM	–	–	92.8	–	–
Calu-3 [20], 10000 nM	–	–	51.7	–	–
HepG2 [15], 1 nM	–	–	94.8	–	–
HepG2 [15], 10 nM	–	–	99.5	–	–
HepG2 [15], 100 nM	–	–	98.6	–	–
HepG2 [15], 1000 nM	–	–	85.7	–	–
HepG2 [15], 10000 nM	–	–	45.6	–	–
U2OS [13], 1 nM	–	–	98.7	–	–
U2OS [13], 10 nM	–	–	97.5	–	–
U2OS [13], 100 nM	–	–	100	–	–
U2OS [13], 1000 nM	–	–	100	–	–
U2OS [13], 10000 nM	–	–	52.1	–	–
Vero E6 [14], 1 nM	–	–	93.1	–	–
Vero E6 [14], 10 nM	–	–	101	–	–
Vero E6 [14], 100 nM	–	–	97.4	–	–
Vero E6 [14], 1000 nM	–	–	93.5	–	–
Vero E6 [14], 10000 nM	–	–	87.9	–	–
[1], 0.3 µM	106	–	–	–	–
[1], 3 µM	72	–	–	–	–
[1], 10 µM	22	–	–	–	–
[1], 30 µM	43	–	–	–	–
[2], 0.3 µM	–	–	–	-0.18	–
[2], 3 µM	–	–	–	0.58	–
[2], 10 µM	–	–	–	0.82	–
[2], 30 µM	–	–	–	0.17	–
[3], 0.3 µM	–	102	–	–	–
[3], 3 µM	–	106	–	–	–
[3], 10 µM	–	115	–	–	–
[3], 30 µM	–	82	–	–	–

drug-induced phospholipidosis [%], A549-ACE2 [4]
Details	0.3 µM	0.833333 µM	3.33333 µM	6.66667 µM	10 µM	30 µM
24 h	0.45	0.3	12.7	59.1	43.6	17.2
48 h	-0.34	-2.16	8.14	56.1	35.4	–
72 h	-1.75	-1.63	6.6	–	–	–

Details	drug sensitivity score	relative viability EC50
Caco-2 [8]	0.8	–
Caco-2 [12]	–	> 10 µM
Calu-3 [17]	3.7	–
HepG2 [7]	5.1	–
HepG2 [11]	–	1510 nM
U2OS [5]	2.5	–
Vero E6 [6]	0.1	–
Vero E6 [19]	–	> 10 µM

CN(C)CCOc1ccc(/C(=C(/CCCl)c2ccccc2)c2ccccc2)cc1 [toremifene]
Details	SARS-CoV-2 infection rate [%]	cell count [%]	cell viability [%]	morphology score	phospholipidosis EC50 [µM]
A549-ACE2 [9], 24 h	–	–	–	–	15
A549-ACE2 [9], 48 h	–	–	–	–	1.48
A549-ACE2 [9], 72 h	–	–	–	–	1.65
Caco-2 [16], 1 nM	–	–	100	–	–
Caco-2 [16], 10 nM	–	–	98.1	–	–
Caco-2 [16], 100 nM	–	–	105	–	–
Caco-2 [16], 1000 nM	–	–	92.3	–	–
Caco-2 [16], 10000 nM	–	–	39.8	–	–
Calu-3 [20], 1 nM	–	–	90.6	–	–
Calu-3 [20], 10 nM	–	–	106	–	–
Calu-3 [20], 100 nM	–	–	104	–	–
Calu-3 [20], 1000 nM	–	–	93.1	–	–
Calu-3 [20], 10000 nM	–	–	15.8	–	–
HepG2 [15], 1 nM	–	–	105	–	–
HepG2 [15], 10 nM	–	–	82.5	–	–
HepG2 [15], 100 nM	–	–	104	–	–
HepG2 [15], 1000 nM	–	–	103	–	–
HepG2 [15], 10000 nM	–	–	29.9	–	–
U2OS [13], 1 nM	–	–	97.6	–	–
U2OS [13], 10 nM	–	–	94.9	–	–
U2OS [13], 100 nM	–	–	99.4	–	–
U2OS [13], 1000 nM	–	–	91.3	–	–
U2OS [13], 10000 nM	–	–	66.7	–	–
Vero E6 [14], 1 nM	–	–	98.4	–	–
Vero E6 [14], 10 nM	–	–	101	–	–
Vero E6 [14], 100 nM	–	–	90.4	–	–
Vero E6 [14], 1000 nM	–	–	95.3	–	–
Vero E6 [14], 10000 nM	–	–	53.6	–	–
[1], 0.1 µM	105	–	–	–	–
[1], 0.3 µM	88	–	–	–	–
[1], 1 µM	89	–	–	–	–
[1], 3 µM	44	–	–	–	–
[2], 0.1 µM	–	–	–	-0.1	–
[2], 0.3 µM	–	–	–	0.28	–
[2], 1 µM	–	–	–	0.36	–
[2], 3 µM	–	–	–	0.76	–
[3], 0.1 µM	–	100	–	–	–
[3], 0.3 µM	–	107	–	–	–
[3], 1 µM	–	107	–	–	–
[3], 3 µM	–	127	–	–	–

drug-induced phospholipidosis [%], A549-ACE2 [4]
Details	0.3 µM	0.833333 µM	3.33333 µM	6.66667 µM	10 µM	30 µM
24 h	8.6	44.5	103	115	116	416
48 h	7.64	34.2	102	117	121	–
72 h	6.92	27.5	102	112	125	–

Details	drug sensitivity score	relative viability EC50
Caco-2 [8]	4.6	–
Caco-2 [12]	–	2.13 µM
Calu-3 [17]	5.7	–
Calu-3 [18]	–	2500 nM
HepG2 [7]	3.6	–
HepG2 [11]	–	3400 nM
U2OS [5]	2.8	–
Vero E6 [6]	3.2	–
